# Measured values from publication PMC8307384, “Characterization of Two α-L-Arabinofuranosidases from Acetivibrio mesophilus and Their Synergistic Effect in Degradation of Arabinose-Containing Substrates” (Microorganisms, 2021).
# Biological target: T1, AmAraf51 (Acetivibrio mesophilus, UniProt A0A4Q0I2R2)
# T1 construct: gene EFD62_11990; complete ORF, 509 residues, no signal peptide; N-terminal His6 tag (not reported cut); E. coli ArcticExpress (DE3), pET24c
# Assay: TLC of hydrolysis products
# Format: biochemical
# Settings: 85 nM enzyme, 0.5 g/L substrate, pH 6.0, 60 °C
# T1 sequence (A0A4Q0I2R2 entry or part of it): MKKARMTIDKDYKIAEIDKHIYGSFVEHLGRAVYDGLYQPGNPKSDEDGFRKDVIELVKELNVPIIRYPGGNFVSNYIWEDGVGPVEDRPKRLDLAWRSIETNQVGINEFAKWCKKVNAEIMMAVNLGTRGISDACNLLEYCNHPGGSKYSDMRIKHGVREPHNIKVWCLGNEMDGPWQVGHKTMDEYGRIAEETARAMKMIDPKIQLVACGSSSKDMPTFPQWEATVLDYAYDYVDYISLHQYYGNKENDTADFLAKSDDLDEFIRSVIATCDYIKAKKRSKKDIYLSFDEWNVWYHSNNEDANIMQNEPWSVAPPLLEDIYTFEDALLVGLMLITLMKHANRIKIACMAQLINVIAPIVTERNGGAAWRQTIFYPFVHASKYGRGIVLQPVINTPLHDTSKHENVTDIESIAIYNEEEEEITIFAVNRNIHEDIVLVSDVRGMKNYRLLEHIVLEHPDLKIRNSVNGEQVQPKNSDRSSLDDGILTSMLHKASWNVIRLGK
structure (smiles),measurement,value
"OC[C@@H]1O[C@@H](OC[C@@H]2O[C@@H](OC[C@@H]3OC(O)[C@H](O)[C@H]3O)[C@H](O)[C@H]2O)[C@H](O)[C@H]1O (stereo partly shown) [A3, arabinotriose]",TLC of hydrolysis products,incubation of AmAraf51 with three different AOS led to their almost complete hydrolysis to arabinose
